In general, IC50 refers to the concentration that gives 50% inhibition.

For 4 molecules, IC50 results are on record in PMC4867491 (Oncogene, 2015).

Where two headings read alike, the source gives them in different places.

Type in all cases: cell-based, human
The subject of assay [1] is HeLa-C604Y. The experiment in a line: Proliferation/colony formation assay. The following applies: read-out: median IC50, three independent experiments.
Assay [2] has as its system HCT-116-C604Y. The experiment in a line: Proliferation/colony formation assay. The note with it: read-out: median IC50, three independent experiments.
Assay [3] has as its system HCT-116, DLD-1 and U2OS. The following applies: read-out: IC50 (cell viability).
Assay [4] has as its system HeLa-C604F. The experiment in a line: Proliferation/colony formation assay. The following applies: read-out: median IC50, three independent experiments.
Assay [5] has as its system DLD-1-S611R. As to the kind of experiment: Proliferation/colony formation assay. The note with it: read-out: median IC50, three independent experiments.
Assay [6] deals with HeLa. The experiment in a line: Proliferation/colony formation assay. The following applies: read-out: median IC50; HeLa parental; three independent experiments.
Assay [7] concerns HCT-116-I531M. The experiment in a line: Proliferation/colony formation assay. The note with it: read-out: median IC50, three independent experiments.
For assay [8], the system named is HeLa-I598F. The experiment in a line: Proliferation/colony formation assay. The following applies: read-out: median IC50, three independent experiments.
Assay [9] has as its system DLD-1. As to the kind of experiment: Proliferation/colony formation assay. The note with it: read-out: median IC50; DLD-1 parental; three independent experiments.
In assay [10] the test system is HCT-116. As to the kind of experiment: Proliferation/colony formation assay. The note with it: read-out: median IC50; HCT-116 parental; three independent experiments.
Setting [11] is: three cancer cell lines HCT-116, DLD-1 and U2OS, Supplementary Figures 2a-c.

On to `Cc1cc(N2CCOCC2)ccc1Nc1nc(NC2CCCCC2)c2[nH]cnc2n1` [MPI-0479605], for which the half-inhibitory concentration (IC50) in assay [1] is > 2 µM; in assay [2], > 2 µM; in assay [3] (setting [11]), 0.063 to 0.153 µM; in assay [4], > 2 µM; in assay [5] it was > 2 µM.
In the case of `CCc1cccc(CC)c1NC(=O)c1nn(C)c2c1CCc1cnc(Nc3ccc(C(=O)NC4CCN(C)CC4)cc3OC(F)(F)F)nc1-2` [NMS-P715], the concentration for half-maximal inhibition (IC50) in [1] is > 2 µM; in assay [2] it was > 2 µM; in assay [3] (setting [11]), > 0.15 µM.
Turning to `c1nc2nc(Nc3ccc(N4CCOCC4)cc3)nc(NC3CCCCC3)c2[nH]1` [Reversine, reversine], the IC50 in assay [3] (Homo sapiens) was in the range of 0.063 to 0.153 µM.
Regarding AZ3146, the IC50 in [1] was > 5 µM; in [2], > 5 µM; in assay [6], 1.33 µM; in assay [7], 3.06 µM; in assay [4] it was 2.74 µM; in assay [8], 3.85 µM. The values for the 50% inhibitory concentration (IC50) in [5], in assay [9] and in assay [10] were > 5 µM, 0.719 µM and 0.56 µM, respectively.
